≈ marks a conversion by molar mass, not a printed value. Calls of active or inactive are those of the source. The rule behind the calls is not given here.
How the values were obtained:
Saccharomyces cerevisiae [1] = test: Antifungal activity against Saccharomyces cerevisiae PM503 assessed as zone of inhibition after 48 hrs; format: functional, organism-based
Saccharomyces cerevisiae [2] = test: Antifungal activity against Saccharomyces cerevisiae PM503 after 48 hrs; format: functional; conditions: PM503, 48 h

MIC (Saccharomyces cerevisiae [2]) [µg/mL]	Structure (SMILES)	Activity (Saccharomyces cerevisiae [1])
	C=C1CC[C@H]2[C@@H](CC2(C)C)[C@H]2CO[C@@](O)(C1)C2=O	inactive
	C/C1=C/C(=O)[C@@H](O)[C@@]2(CO2)[C@@H]2CC(C)(C)[C@H]2CC1	inactive
	C/C1=C/[C@H](O)C(=O)[C@@H](CO)[C@@H]2CC(C)(C)[C@H]2CC1	inactive
60 (≈ 238 µM)	C/C1=C/C(=O)[C@@H](O)[C@@H](CO)[C@@H]2CC(C)(C)[C@H]2CC1	inactive

From ChEMBL document CHEMBL1152316, “Caryophyllenes from a fungal culture of Chrysosporium pilosum” (2009)
